# According to patent publication US20110124620A1, “SPHINGOSINE 1 PHOSPHATE RECEPTOR MODUATORS AND THEIR USE TO TREAT MUSCLE INFLAMMATION” (priority 2008, published 2011):
# Tested on: Primary Human Myotubes
# Experiment: Effect on cytokine-induced atrophy of primary human myotubes (myotube diameter)
# Type: cell-based
# Experimental: In Vitro: Effect on Cytokine-Induced Atrophy of Primary Human Myotubes.
# Human skeletal muscle (skMC) cells are obtained from Cambrex (#CC-2561). For experiments skMC stocks are thawed and maintained in SkBM (Lonza CC-3161) containing 20% FCS and 0.1% gentamycin at 37° C., 5% CO2. After 4-5 days cells are seeded for experiments onto six-well plates coated with matrigel (450,000/well) and grown at 37° C., 5% CO2 for one day. Cells are then washed 3× with SkBM and differentiated into myotubes with SkBM containing 1 μM SB431542 (ALK4/5 inhibitor; Sigma #S4317) for 4 days (SB431542 is removed 24 h prior cell treatment). Myotubes are then treated with test compound either in the absence or in the presence of a cytokine cocktail (TNFα 10 ng/ml, IL-1β 2 ng/ml, IFNγ 10 ng/ml) for 24 h in SkBM plus 0.1% gentamycin, washed once with CSB buffer: 80 mM pipes, […], 1 mM MgCl 6H20 and 4% PEG35000 (Fluka #94646) and fixed with 4% paraformaldehyde (Electron Microscopy Sciences #15714) in CSB for 15 min at room temperature. […] Average diameters of at least 40 myotubes are measured for each condition at three points separated by 50 μm along the length of the myotube.
structure (smiles),measurement,setting,value
"CCc1cc(C(C)=NOCc2ccc(C3CCCCC3)c(C(F)(F)F)c2)ccc1CN1CC(C(=O)O)C1 [Compound A, 1-{4-[1-(4-cyclohexyl-3-trifluoromethyl-benzyloxyimino)-ethyl]-2-ethyl-benzyl}-azetidine-3-carboxylic acid]",effect on cytokine-induced atrophy (myotube diameter),"Compound A 1 nM, cytokine cocktail (TNFα 10 ng/ml, IL-1β 2 ng/ml, IFNγ 10 ng/ml) for 24 h, cocktail alone gives approx. 20% decrease in myotube diameter vs vehicle control",block almost completely the cytokine-induced atrophy
same,effect on cytokine-induced atrophy (myotube diameter),"higher concentrations of Compound A (above 1 nM), cytokine cocktail for 24 h",exert the same effect
